Oligonucleotides are written 5' to 3', each unit as a sugar letter and its base; * is a phosphorothioate linkage, no mark a phosphodiester; rarer units and linkages stand in square brackets, end groups in braces. Plain capitals give the bases only. e = 2'-O-(2-methoxyethyl) (MOE); [5mC] = 5-methylcytosine; d = 2'-deoxy (DNA)
Legend:
[1] = Liver enzyme levels in ApoE knockout mice; assay type: in vivo, mouse
Text: Female ApoE knockout mice ranged in age from 5 to 7 weeks and were placed on a normal diet for 2 weeks before study initiation. ApoE knockout mice were then fed ad libitum a 60% fat diet, with 0.15% added cholesterol to induce dyslipidemia and obesity. […]
At study termination and forty eight hours after the final injections, animals were sacrificed and evaluated for target mRNA levels in liver by RT-PCR methods verified by Northern Blot analysis, glucose levels, cholesterol and lipid levels by HPLC separation methods and triglyceride and liver enzyme levels (perfomed by LabCorp Preclinical Services; San Diego, Calif.). Data are normalized to saline controls.

[2] = Serum AST and ALT levels, high fat fed mice, 6 week study; assay type: in vivo, mouse; details: daily oral dose of 20 mg/kg
Protocol: (§1) Male C57BL/6 mice (n=8) receiving a high fat diet (60% kcal fat) were evaluated over the course of 6 weeks for the effects of treatment with the antisense oligonucleotide, ISIS 147764. Control animals received saline treatment (50 mg/kg). A subset of animals received a daily oral dose (20 mg/kg) atorvastatin calcium (Lipitor®, Pfizer Inc.). All mice, except atorvastatin-treated animals, were dosed intraperitoneally every three days (twice a week), after fasting overnight, with 5, 25, 50 mg/kg ISIS 147764 (SEQ ID No: 109) or saline (50 mg/kg) for six weeks. Serum cholesterol and lipoproteins were analyzed at 0, 2 and 6 week interim timepoints. At study termination, animals were sacrificed 48 hours after the final injections and evaluated for levels of target mRNA levels in liver, cholesterol, lipoprotein, triglyceride, liver enzyme (AST and ALT) and serum glucose levels as well as body, liver, spleen and fat pad weights.
Male C57BL/6 mice (n=8) receiving a high fat diet (60% kcal fat) were evaluated over the course of 6 weeks for the effects of ISIS 147764 on liver enzyme (AST and ALT) levels. Control animals received saline treatment (50 mg/kg). Mice were dosed intraperitoneally every three days (twice a week), after fasting overnight, with 5, 25, 50 mg/kg ISIS 147764 (SEQ ID No: 109) or saline (50 mg/kg) for six weeks.
Values in the table are expressed as IU/L. Increased levels of the liver enzymes ALT and AST indicate toxicity and liver damage.

[3] = Body, spleen, liver and fat pad weight, high fat fed mice, 6 week study; assay type: in vivo, mouse; details: 20 mg/kg daily, compared to saline-treated controls
Protocol: as §1
Male C57BL/6 mice (n=8) receiving a high fat diet (60% kcal fat) were evaluated over the course of 6 weeks for the effects of ISIS 147764 on body, spleen, liver and fat pad weight. Control animals received saline treatment (50 mg/kg). Mice were dosed intraperitoneally every three days (twice a week), after fasting overnight, with 5, 25, 50 mg/kg ISIS 147764 (SEQ ID No: 109) or saline (50 mg/kg) for six weeks.
At study termination, animals were sacrificed 48 hours after the final injections and body, spleen, liver and fat pad weights were measured. Values are expressed as percent change in body weight or ogan weight compared to the saline-treated control animals. Data from mice treated with atorvastatin at a daily dose of 20 mg/kg are also shown in the table Negative values indicated a decrease in weight.

[4] = test system: human apolipoprotein B mRNA; test: Inhibition of human apolipoprotein B mRNA levels in HepG2 cells, quantitative real-time PCR; assay type: cell-based; parameters: %INHIB of human apolipoprotein B mRNA levels: concentration or dose not given beside the values; details: averages from two experiments
Protocol: The human hepatoblastoma cell line HepG2 was obtained from the American Type Culture Collection (Manassas, Va.). HepG2 cells were routinely cultured in Eagle's MEM supplemented with 10% fetal calf serum, non-essential amino acids, and 1 mM sodium pyruvate (Gibco/Life Technologies, Gaithersburg, Md.). Cells were routinely passaged by trypsinization and dilution when they reached 90% confluence. Cells were seeded into 96-well plates (Falcon-Primaria #3872) at a density of 7000 cells/well for use in RT-PCR analysis.
When cells reached 80% confluency, they were treated with oligonucleotide. For cells grown in 96-well plates, wells were washed once with 200 μL OPTI-MEM™-1 reduced-serum medium (Gibco BRL) and then treated with 130 μL of OPTI-MEM™-1 containing 3.75 μg/mL LIPOFECTIN™ (Gibco BRL) and the desired concentration of oligonucleotide. After 4-7 hours of treatment, the medium was replaced with fresh medium. Cells were harvested 16-24 hours after oligonucleotide treatment.
Quantitation of apolipoprotein B mRNA levels was determined by real-time quantitative PCR using the ABI PRISM™ 7700 Sequence Detection System (PE-Applied Biosystems, Foster City, Calif.) according to manufacturer's instructions. This is a closed-tube, non-gel-based, fluorescence detection system which allows high-throughput quantitation of polymerase chain reaction (PCR) products in real-time. As opposed to standard PCR, in which amplification products are quantitated after the PCR is completed, products in real-time quantitative PCR are quantitated as they accumulate. This is accomplished by including in the PCR reaction an oligonucleotide probe that anneals specifically between the forward and reverse PCR primers, and contains two fluorescent dyes. A reporter dye (e.g., JOE, FAM, or VIC, obtained from either Operon Technologies Inc., Alameda, Calif. or PE-Applied Biosystems, Foster City, Calif.) is attached to the 5′ end of the probe and a quencher dye (e.g., TAMRA, obtained from either Operon Technologies Inc., Alameda, Calif. or PE-Applied Biosystems, Foster City, Calif.) is attached to the 3′ end of the probe. When the probe and dyes are intact, reporter dye emission is quenched by the proximity of the 3′ quencher dye. During amplification, annealing of the probe to the target sequence creates a substrate that can be cleaved by the 5′-exonuclease activity of Taq polymerase. […] With each cycle, additional reporter dye molecules are cleaved from their respective probes, and the fluorescence intensity is monitored at regular intervals by laser optics built into the ABI PRISM™ 7700 Sequence Detection System. In each assay, a series of parallel reactions containing serial dilutions of mRNA from untreated control samples generates a standard curve that is used to quantitate the percent inhibition after antisense oligonucleotide treatment of test samples.
PCR reagents were obtained from PE-Applied Biosystems, Foster City, Calif. RT-PCR reactions were carried out by adding 25 μL PCR cocktail (1× TAQMAN™ buffer A, 5.5 mM MgCl2, 300 μM each of DATP, dCTP and dGTP, 600 μM of dUTP, 100 nM each of forward primer, reverse primer, and probe, 20 Units RNAse inhibitor, 1.25 Units AMPLITAQ GOLD™, and 12.5 Units MuLV reverse transcriptase) to 96 well plates containing 25 μL total RNA solution. The RT reaction was carried out by incubation for 30 minutes at 48° C. Following a 10 minute incubation at 95° C. to activate the AMPLITAQ GOLD™, 40 cycles of a two-step PCR protocol were carried out: 95° C. for 15 seconds (denaturation) followed by 60° C. for 1.5 minutes (annealing/extension).
Gene target quantities obtained by real time RT-PCR are normalized using either the expression level of GAPDH, a gene whose expression is constant, or by quantifying total RNA using RiboGreen™ (Molecular Probes, Inc. Eugene, Oreg.). GAPDH expression is quantified by real time RT-PCR, by being run simultaneously with the target, multiplexing, or separately. […]

Row | Molecule | %INHIB of human apolipoprotein B mRNA levels [4] | also measured
1 | CC(C)c1c(C(=O)Nc2ccccc2)c(-c2ccccc2)c(-c2ccc(F)cc2)n1CC[C@@H](O)C[C@@H](O)CC(=O)O [atorvastatin, atorvastatin calcium, reference compound] |  | Liver Enzyme Levels ALT ([1]; 20 mg/kg daily, Control 56): 76 IU/L; Liver Enzyme Levels AST ([1]; Control 55): 75 IU/L; AST levels ([2]; printed in the ALT paragraph): 40 IU/L; AST levels ([2]; saline control 65 IU/L): 85 IU/L; Fat pad weight Percent Change [3]: 7%; Liver weight Percent Change [3]: 15%; Spleen weight Percent Change [3]: 10%; Total Body Wt. Percent Change [3]: 1%
2 | 147828 (antisense eA*e[5mC]*eG*eT*eT*dA*dT*d[5mC]*d[5mC]*dT*dT*dG*dA*dG*dT*e[5mC]*e[5mC]*e[5mC]*eT*eG) [compound 147828] | 12% | 
3 | 147826 (antisense eT*e[5mC]*eA*eG*eG*dG*dT*dG*dA*dG*d[5mC]*d[5mC]*d[5mC]*dT*dG*eT*eG*eT*eG*eT) [compound 147826] | 80% | 
4 | 147784 (antisense e[5mC]*eA*eG*e[5mC]*eG*d[5mC]*d[5mC]*dA*dG*d[5mC]*dA*dG*d[5mC]*dG*d[5mC]*e[5mC]*eA*eG*e[5mC]*eA) [compound 147784] | 70% | 
5 | 147818 (antisense eA*eG*eT*eG*eA*dT*dG*dG*dA*dA*dG*d[5mC]*dT*dG*d[5mC]*eG*eA*eT*eA*e[5mC]) [compound 147818] | 30% | 
6 | 147814 (antisense e[5mC]*e[5mC]*e[5mC]*eA*eA*dT*dA*dA*dG*dA*dT*dT*dT*dA*dT*eA*eA*e[5mC]*eA*eA) [compound 147814] | 34% | 
7 | 147833 (antisense eA*eT*eG*eA*eT*dA*d[5mC]*dA*d[5mC]*dA*dA*dT*dA*dA*dA*eG*eA*e[5mC]*eT*e[5mC]) [compound 147833] | 25% | 
8 | 147809 (antisense e[5mC]*e[5mC]*e[5mC]*eA*eG*dT*dG*dA*dT*dA*dG*d[5mC]*dT*d[5mC]*dT*eG*eT*eG*eA*eG) [compound 147809] | 60% | 
9 | 147827 (antisense e[5mC]*eT*eA*eA*eT*dG*dG*d[5mC]*d[5mC]*d[5mC]*d[5mC]*dT*dT*dG*dA*eT*eA*eA*eA*e[5mC]) [compound 147827] | 13% | 

Source: patent US8735364B2, “Antisense modulation of apolipoprotein B expression” (Genzyme Corporation, priority 2001, dated 2014)
